The text below walks through data of patent publication US12709610B2, “Preparation method for hepatitis B virus nucleocapsid inhibitor” (Shanghai Zhimeng Biopharma, Inc., priority 2021, dated 2026).

This series is described as follows: Ames assay (genotoxicity). In kind it is cell-based. The following applies: synthetic intermediates of the last three steps. A general note: The Ames test uses bacterial strains that need an amino acid and regain growth without it when mutated back.

For the molecule `NC(=O)Nc1ccc(CCN2C(=O)CO[C@@H]2c2cn(-c3ccc(Br)cc3)nc2-c2ccc(F)cc2)cc1I` [Compound 9], the Ames assay result is listed as “negative”. In the case of `NC(=O)Nc1ccc(CCN2C(=O)CO[C@@H]2c2cn(-c3ccc(Br)cc3)nc2-c2ccc(F)cc2)cc1` [Compound 17], the Ames assay result was “negative”.
